According to US20230104936A1, “TRPML MODULATORS” (Casma Therapeutics, Inc., priority 2019, published 2023):

Tested on: TFEB
Test: TFEB nuclear translocation assay, HeLa wt cells
Format: cell-based
Conditions: Homo sapiens, HeLa, 2 h, 2 hrs compound treatment, Table 1 does not say HeLa wt or TRPML1 KO
Procedure, shortened: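 HeLa wt cells were treated with compound for 2 hrs at 37° C, then fixed in 4% PFA and immunostained for TFEB with an Alexa 488 secondary and Hoechst nuclear counterstain. Automated epifluorescence imaging at ×20 gave the ratio of nuclear TFEB intensity to a perinuclear ring region, from which AC50 was derived.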

Compound	AC50 [nM]
Cc1ccc(S(=O)(=O)Nc2ccccc2N2[C@@H]3CC[C@H]2C[C@H](c2ccccc2F)C3)cc1 [Compound A-119, N-{2-[(1R,3S,5S)-3-(2-fluorophenyl)-8-azabicyclo[3.2.1]octan-8-yl]phenyl}-4-methylbenzene-1-sulfonamide]	≤ 2000
Cc1ccc(S(=O)(=O)Nc2ccccc2N2[C@@H]3CC[C@H]2C[C@@H](c2ccccc2F)C3)cc1 [Compound A-120, N-{2-[(1R,3R,5S)-3-(2-fluorophenyl)-8-azabicyclo[3.2.1]octan-8-yl]phenyl}-4-methylbenzene-1-sulfonamide]	≤ 2000
C[C@@H]1CN(c2ccccc2NS(=O)(=O)c2ccc(S(=O)(=O)N(C)C)cc2)C[C@H](C)N1c1ccc(Cl)cn1 [Compound A-121, N4-{2-[(3R,5S)-4-(5-chloropyridin-2-yl)-3,5-dimethylpiperazin-1-yl]phenyl}-N1,N1-dimethylbenzene-1,4-disulfonamide]	≤ 2000
O=S(=O)(Nc1cccc(N2CCC(c3ccc(Cl)cc3F)CC2)c1)c1cccc(F)c1 [Compound A-122, N-{3-[4-(4-chloro-2-fluorophenyl)piperidin-1-yl]phenyl}-3-fluorobenzene-1-sulfonamide]	≥ 10000
COc1ccc(S(=O)(=O)Nc2ccccc2N2CCC(c3ccc(F)cc3F)CC2)cn1 [Compound A-123, N-{2-[4-(2,4-difluorophenyl)piperidin-1-yl]phenyl}-6-methoxypyridine-3-sulfonamide]	2010 to 8000
CS(=O)(=O)c1ccc(S(=O)(=O)Nc2ccccc2N2CCC(c3c(F)cccc3F)CC2)cc1 [Compound A-124, N-{2-[4-(2,6-difluorophenyl)piperidin-1-yl]phenyl}-4-methanesulfonylbenzene-1-sulfonamide]	≤ 2000
O=S(=O)(Nc1cccc(N2CCC(c3ccc(Cl)cc3F)CC2)c1)c1ccc(F)cc1 [Compound A-128, N-{3-[4-(4-chloro-2-fluorophenyl)piperidin-1-yl]phenyl}-4-fluorobenzene-1-sulfonamide]	≥ 10000
CN(C)S(=O)(=O)c1ccc(S(=O)(=O)Nc2cc(Cl)nnc2N2CCC(c3ccc(Cl)cc3F)CC2)cc1 [Compound A-129, N4-{6-chloro-3-[4-(4-chloro-2-fluorophenyl)piperidin-1-yl]pyridazin-4-yl}-N1,N1-dimethylbenzene-1,4-disulfonamide]	≥ 10000
COc1ccc(S(=O)(=O)Nc2nccnc2N2CCN(c3ncc(Cl)cc3F)CC2)cc1 [Compound A-130, N-{3-[4-(5-chloro-3-fluoropyridin-2-yl)piperazin-1-yl]pyrazin-2-yl}-4-methoxybenzene-1-sulfonamide]	≥ 10000
CS(=O)(=O)c1ccc(S(=O)(=O)Nc2ccccc2N2CCC(c3ncc(F)cc3F)CC2)cc1 [Compound A-131, N-{2-[4-(3,5-difluoropyridin-2-yl)piperidin-1-yl]phenyl}-4-methanesulfonylbenzene-1-sulfonamide]	≤ 2000
CS(=O)(=O)c1ccc(S(=O)(=O)Nc2ccccc2N2CCC(c3c(F)cc(F)cc3F)CC2)cc1 [Compound A-132, 4-methanesulfonyl-N-{2-[4-(2,4,6-trifluorophenyl)piperidin-1-yl]phenyl}benzene-1-sulfonamide]	≤ 2000
Cc1ccc(S(=O)(=O)c2ccccc2N2CCC(c3ccc(Cl)cc3F)CC2)cc1 [Compound A-133]	≥ 10000
CN(C)S(=O)(=O)c1ccc(S(=O)(=O)Nc2cccc(N3CCC(c4ccc(Cl)cc4F)CC3)n2)cc1 [Compound A-134, N4-{6-[4-(4-chloro-2-fluorophenyl)piperidin-1-yl]pyridin-2-yl}-N1,N1-dimethylbenzene-1,4-disulfonamide]	≥ 10000
COc1ccc(S(=O)(=O)Nc2ncccc2N2CCN(c3ncc(Cl)cc3F)CC2)cc1 [Compound A-135, N-{3-[4-(5-chloro-3-fluoropyridin-2-yl)piperazin-1-yl]pyridin-2-yl}-4-methoxybenzene-1-sulfonamide]	≥ 10000
O=S(=O)(Nc1ccccc1N1CCC(c2ccc(F)cc2F)CC1)c1ccc(C(F)F)nc1 [Compound A-136, 6-(difluoromethyl)-N-{2-[4-(2,4-difluorophenyl)piperidin-1-yl]phenyl}pyridine-3-sulfonamide]	≤ 2000
O=S(=O)(Nc1ccccc1N1CCC(c2ccc(F)cc2F)CC1)c1ccc(C(F)F)cn1 [Compound A-137, 5-(difluoromethyl)-N-{2-[4-(2,4-difluorophenyl)piperidin-1-yl]phenyl}pyridine-2-sulfonamide]	2010 to 8000
Cc1ccc(S(=O)(=O)Cc2ccccc2N2CCC(c3ccc(Cl)cc3F)CC2)cc1 [Compound A-138, 4-(4-chloro-2-fluorophenyl)-1-(2-(tosylmethyl)phenyl)piperidine]	≤ 2000
CN(C)S(=O)(=O)c1ccc(S(=O)(=O)Nc2ccnnc2N2CCC(c3ccc(Cl)cc3F)CC2)cc1 [Compound A-139, N4-{3-[4-(4-chloro-2-fluorophenyl)piperidin-1-yl]pyridazin-4-yl}-N1,N1-dimethylbenzene-1,4-disulfonamide]	≥ 10000

Compound	AC50 [nM]
COc1ccc(S(=O)(=O)Nc2ccc3c(cnn3C)c2N2CCN(c3ncc(Cl)cc3F)CC2)cc1 [Compound A-140, N-{4-[4-(5-chloro-3-fluoropyridin-2-yl)piperazin-1-yl]-1-methyl-1H-indazol-5-yl}-4-methoxybenzene-1-sulfonamide]	≤ 2000
CN(C)S(=O)(=O)c1ccc(S(=O)(=O)Nc2ccccc2N2CCC(O)(c3ccc(F)cc3F)CC2)cc1 [Compound A-141, N4-{2-[4-(2,4-difluorophenyl)-4-hydroxypiperidin-1-yl]phenyl}-N1,N1-dimethylbenzene-1,4-disulfonamide]	≤ 2000
CS(=O)(=O)c1ccc(S(=O)(=O)Nc2ccccc2N2CCC(O)(c3ccc(Cl)cc3F)CC2)cc1 [Compound A-142, N-{2-[4-(4-chloro-2-fluorophenyl)-4-hydroxypiperidin-1-yl]phenyl}-4-methanesulfonylbenzene-1-sulfonamide]	2010 to 8000
CN(C)S(=N)(=O)c1ccc(S(=O)(=O)Nc2ccccc2N2CCC(O)(c3ccc(Cl)cc3F)CC2)cc1 (centres unmarked) [Compound A-143, 4-({2-[4-(4-chloro-2-fluorophenyl)-4-hydroxypiperidin-1-yl]phenyl}sulfamoyl)-N,N-dimethylbenzene-1-sulfonoimidamide]	≤ 2000
Cc1ccc([S+]([O-])c2ccccc2N2CCC(c3ccc(Cl)cc3F)CC2)cc1 (centres unmarked) [Compound A-144, 4-(4-chloro-2-fluorophenyl)-1-(2-(p-tolylsulfinyl)phenyl)piperidine]	≥ 10000
Cc1ccc([S+]([O-])Cc2ccccc2N2CCC(c3ccc(Cl)cc3F)CC2)cc1 (centres unmarked) [Compound A-145, 4-(4-chloro-2-fluorophenyl)-1-(2-((p-tolylsulfinyl)methyl)phenyl)piperidine]	≥ 10000
CN1c2ccccc2N(S(=O)(=O)c2ccc(S(=O)(=O)N(C)C)cc2)CC1c1ccc(Cl)cc1F (centres unmarked) [Compound A-146, 4-{[3-(4-chloro-2-fluorophenyl)-4-methyl-1,2,3,4-tetrahydroquinoxalin-1-yl]sulfonyl}-N,N-dimethylbenzene-1-sulfonamide]	≤ 2000
COc1ccc(S(=O)(=O)Nc2ccccc2N2CCC(c3ncc(Cl)cc3F)CC2)cc1 [Compound A-147, N-{2-[4-(5-chloro-3-fluoropyridin-2-yl)piperidin-1-yl]phenyl}-4-methoxybenzene-1-sulfonamide]	2010 to 8000
CN(C)S(=O)(=O)c1ccc(S(=O)(=O)Nc2ccccc2N2CCC(O)(c3ccccc3)CC2)cc1 [Compound A-148, N4-[2-(4-hydroxy-4-phenylpiperidin-1-yl)phenyl]-N1,N1-dimethylbenzene-1,4-disulfonamide]	≤ 2000
CN(C)S(=O)(=O)c1ccc(S(=O)(=O)Nc2ccccc2N2CCC(c3ccc(Cl)cc3F)CC2)c(F)c1 [Compound A-149, N4-{2-[4-(4-chloro-2-fluorophenyl)piperidin-1-yl]phenyl}-3-fluoro-N1,N1-dimethylbenzene-1,4-disulfonamide]	≤ 2000
CN(C)S(=O)(=O)c1ccc(S(=O)(=O)Nc2ccccc2N2CCC(N)(c3ccc(Cl)cc3F)CC2)cc1 [Compound A-150, N4-{2-[4-amino-4-(4-chloro-2-fluorophenyl)piperidin-1-yl]phenyl}-N1,N1-dimethylbenzene-1,4-disulfonamide]	≤ 2000
Cc1ccc(S(=N)(=O)Nc2ccccc2N2CCC(c3ccc(Cl)cc3F)CC2)cc1 (centres unmarked) [Compound A-151, N-{2-[4-(4-chloro-2-fluorophenyl)piperidin-1-yl]phenyl}-4-methylbenzene-1-sulfonoimidamide]	2010 to 8000
CS(=N)(=O)c1ccc(S(=O)(=O)Nc2ccccc2N2CCC(O)(c3ccc(Cl)cc3F)CC2)cc1 (centres unmarked) [Compound A-152, N-{2-[4-(4-chloro-2-fluorophenyl)-4-hydroxypiperidin-1-yl]phenyl}-4-[iimino(methyl)oxo-λ^6-sulfanyl]benzene-1-sulfonamide]	≥ 10000
CC(=O)NC1(c2ccc(Cl)cc2F)CCN(c2ccccc2NS(=O)(=O)c2ccc(S(=O)(=O)N(C)C)cc2)CC1 [Compound A-153, N-[4-(4-chloro-2-fluorophenyl)-1-{2-[4-(dimethylsulfamoyl)benzenesulfonamido]phenyl}piperidin-4-yl]acetamide]	2010 to 8000
CS(=O)(=O)c1ccc(S(=O)(=O)Nc2cc(F)ccc2N2CCC(c3c(F)cccc3F)CC2)cc1 [Compound A-154, N-{2-[4-(2,6-difluorophenyl)piperidin-1-yl]-5-fluorophenyl}-4-methanesulfonylbenzene-1-sulfonamide]	≤ 2000
CS(=O)(=O)c1ccc(S(=O)(=O)Nc2ccc(F)cc2N2CCC(c3c(F)cccc3F)CC2)cc1 [Compound A-155, N-{2-[4-(2,6-difluorophenyl)piperidin-1-yl]-4-fluorophenyl}-4-methanesulfonylbenzene-1-sulfonamide]	2010 to 8000
CN(C)S(=O)(=O)c1ccc(S(=O)(=O)c2ccccc2N2CCC(c3ccc(Cl)cc3F)CC2)cc1 [Compound A-156, 4-((2-(4-(4-chloro-2-fluorophenyl)piperidin-1-yl)phenyl)sulfonyl)-N,N-dimethylbenzenesulfonamide]	2010 to 8000
